Patent US9949992B2, “Bisphosphonate compositions and methods for treating and\or reducing cardiac dysfunction” (DUKE UNIVERSITY, priority 2011, dated 2018)

Assays:
[1] = Hydroxyapatite (HAP) affinity by chromatographic profiling on HAP column; assay type: binding; settings: phosphate gradient 1 mM to 1000 mM, pH 6.8
ERK = test: Expression and activation (phosphorylation) of ERK in myocardial tissue, SHAM or TAC mice, immunoblot and densitometry; assay type: in vivo, mouse
[2] = biological target: T1, human farnesyl pyrophosphate synthase (FPPS) (Homo sapiens, UniProt P14324); test: FPPS inhibition, in vitro, recombinant enzyme; assay type: biochemical; settings: GPP and IPP 10 μM each, 37° C., read-out: FFPPS nM IC50
T1 construct: made in house
T1 sequence (P14324 67-419 limits assumed): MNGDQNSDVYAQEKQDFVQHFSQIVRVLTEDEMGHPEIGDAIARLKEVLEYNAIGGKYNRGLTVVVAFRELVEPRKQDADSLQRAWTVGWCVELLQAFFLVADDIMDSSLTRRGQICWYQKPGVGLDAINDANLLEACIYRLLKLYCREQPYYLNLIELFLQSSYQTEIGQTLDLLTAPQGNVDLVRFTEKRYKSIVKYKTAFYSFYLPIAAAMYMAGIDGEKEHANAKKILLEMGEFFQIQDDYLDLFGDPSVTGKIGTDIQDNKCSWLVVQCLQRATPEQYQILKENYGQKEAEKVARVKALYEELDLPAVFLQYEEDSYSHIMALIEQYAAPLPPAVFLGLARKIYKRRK

CCCCCN(C)CCC(O)(P(=O)(O)O)P(=O)(O)O [Ibandronate]
HAP mineral binding (retention time in mins) [1]: ~11 min

O=P(O)(O)C(O)(Cc1cnc2ccccn12)P(=O)(O)O [Minodronate]
HAP mineral binding (retention time in mins) [1]: 10.33 min

O=P(O)(O)C(F)(Cc1cnc2ccccn12)P(=O)(O)O [Ox-14, 1-fluoro-2-(imidazo-[1,2-a]pyridine-3-yl)-ethyl-bisphosphonic acid]
HAP mineral binding (retention time in mins) [1]: 6.17 min | level of expression of ERK (ERK; SHAM animals, FIG. 1, myocardial lysate, subcutaneous dosing): did not change | phosphorylation of ERK (ERK; SHAM animals, FIG. 1 and FIG. 2, myocardial lysate): not as evident | pERK/tERK ratio, fold increase (ERK; SHAM group, with respect to saline treated SHAM animals, FIG. 3): ~3 fold | level of phosphorylation of ERK (ERK; TAC conditioned animals, FIG. 2): substantial increase | pERK/tERK ratio, fold increase (ERK; TAC group relative to saline SHAM group, FIG. 3): ~5 fold | pERK/tERK activity relative to zoledronic acid administered TAC group (ERK; TAC group, FIG. 3): about double | IC50 [2]: 2.5 nM

O=P(O)(O)C(O)(Cc1cccnc1)P(=O)(O)O [Risedronate]
HAP mineral binding (retention time in mins) [1]: 9.97 min
